Reference: patent US20240252508A1, “Novel glucose uptake inhibitors for use in the treatment of cancer” (NOVELYEAST BV, priority 2021, published 2024)

What was measured:
tps1Δ cells = test: Glu6P and Fru1,6bisP levels after glucose addition to tps1Δ cells; assay type: cell-based, S. cerevisiae
Protocol: For measuring metabolite levels, cells were typically grown in Complete Synthetic medium. […] However, when comparing the effect of Warbicins on metabolite profiles of wild type and tps1Δ strains (FIG. 2f-k), cells were grown on 2% galactose. When grown to exponential phase, cells were harvested by centrifugation and washed twice with ice-cold 25 mM 2-(N-Morpholino)ethanesulfonic acid (MES) buffer, pH 6. Cells were suspended in Complete Synthetic medium without sugar at a concentration of 75 mg (wet weight)/mL followed by a temperature equilibration at 30° C. in a shaking water bath for 30 min. Depending on the experiment, a final concentration of 2.5 mM, 7.5 mM or 10 mM glucose was added to the cell suspension. Compounds were added 10 min prior to glucose addition. […]
Through endpoint measurement of the absorbance of NADH or NADPH at 340 nm, metabolite concentrations were calculated by applying Lambert's Law. Different metabolites were measured through the use of coupled enzymatic reactions. […] Depending on the measured metabolite, different co-factors and auxiliary enzymes were added. For measuring glucose-6-phosphate, 0.8 mg/ml NADP^+ was added to the assay buffer after which the baseline absorbance was measured. […] After stabilization of the OD340 spectra, ATP concentrations were measured by additionally adding 10 mM MgCl2 and 0.5 mM glucose to the assay buffer. […]

[1] = test system: A549 lung adenocarcinoma cells; test: A549 cell proliferation / growth inhibition; assay type: cell-based, human
How it was run: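 A549 growth screened in RPMI with 1 mM glucose, compounds at 50 μM; cell number from counts of Hoechst-stained nuclei after 3 days. Growth curves also followed by IncuCyte phase-contrast confluency over 3–5 days (1000–1500 cells/well), DMSO ≤0.1%, ≥4 technical repeats.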

[2] = test system: U266 multiple myeloma cell line; test: U266 proliferation (cell count); assay type: cell-based, human; conditions: 25 μM, 4 days, RPMI with 1 mM glucose
Protocol: a. Cell count of the U266 multiple myeloma cell line after 4 days of growth on RPMI medium with 1 mM glucose. Cells were treated with either DMSO or 25 μM of WBC-A, -15C, -4C or -11C. Glucose consumption (b.) or lactate secretion (c.) rates are shown for U266 cells incubated in RPMI medium supplemented with 1 mM glucose for 8 h.

Cc1nc(Sc2nnc3n2CCCCC3)c2c(-c3cccs3)csc2n1 [WBC-A]
Glu6P and Fru1,6bisP hyperaccumulation after addition of 2.5 mM glucose (tps1Δ cells): concentration-dependent gradual drop in Glu6P and a more precipitous drop in Fru1,6bisP | Potency in reducing maximal growth rate of A549 cells ([1]; 1 mM glucose, 6.25-50 μM): intermediate potency | Proliferation of A549 cells in RPMI medium with 1 mM or 5 mM glucose ([1]; 12.5-50 μM WBC-A): dose-dependent inhibition of growth | Proliferation of U266 cell line [2]: inhibit proliferation
